According to patent publication US20070128657A1, “Molecular libraries” (priority 2002, published 2007):

How the values were obtained:
Type in all cases: cell-based, Homo sapiens (human)
SW480.7 cells = experiment: Cell proliferation status / death after ligand transfection, SW480.7; conditions: SW480.7, 15 days, without puromycin selection
Description: (§1) The purpose of this experiment is to confirm that the selected peptide ligand indeed restores the mutated p53 protein to the wild-type p53 function in SW480.7 cells. […] There might be a chance that the cells got the resistance with, or even without the help of the selected ligand via mechanisms other than p53-transactivated p21 promoter. Thus we should make sure that the mutant p53 in SW480.7 cells functions as wild-type p53 only if the selected ligand is added. […] The selected peptide ligand can be further verified only if it can induce cell cycle arrest or apoptosis in SW480.7 cells but neither in U-2 OS nor in Saos2 cells, which means the specificity of the selected ligand to p53 mutation in SW480.7. • 2—We also tested the transcription levels of genes that are only transactivated by wild-type p53.
(§2) Cells SW480.7, U-2OS, and Sa-os2 were transfected with peptide ligand and pCEP4 parallelly using the calcium phosphate method.
(§3) After transfection, cells were cultured without drug selection and diluted at the ratio of 1:100 every five days. Cell proliferation status was closely observed until ligand transfected SW480.7 cells died out. Life staining with 0.4% trypan blue was applied to determine the death of the cells. Dead cells can not exclude the dye thus were stained blue. Living cells can pump the dye outside thus were not stained. […]

R273H/P309S p53 mutant = experiment: RT-PCR of genes transactivated by wild-type p53 in ligand transfected SW480.7 cells
Description: as §1
P53 (wild-type) regulates different cell responses via transactivating different downstream genes. For example p53 causes cell cycle arrest at G1 phase by transactivation of p21 gene. While p53 causes cell arrest at G2 phase by transactivation of […]. Apoptosis is due to p53 transactivation of […] and/or Bax gene. Thus we measured p21, CD95, and 14-3-3σ gene transcription levels by RT PCR, to reveal the capability of the selected peptide ligand in restoring the wild-type p53 transactivation of the downstream genes. The expression level of β-actin was measured as a control. β-Actin transcription level was used to normalize total mRNA amount between samples for comparison owing to its constitutive expression in all cells.
After transfection, cells were cultured without drug selection and diluted at the ratio of 1:100 every five days. Cell proliferation status was closely observed until ligand transfected SW480.7 cells died out. Life staining with 0.4% trypan blue was applied to determine the death of the cells. Dead cells can not exclude the dye thus were stained blue. Living cells can pump the dye outside thus were not stained. Total RNA was collected from two wells of one ligand transfected SW480.7 plate and one pCEP4 transfected SW480.7 plate each day on day 0, day 1, and day 2 after transfection. Thus RNA samples were harvested as SW480.7/Ligand-0 day, SW480.7/Ligand-1 day, SW480.7/Ligand-2 day, SW480.7/pCEP4-0 day, SW480.7/pCEP4-1 day, SW480.7/pCEP4-2 day. Protocol for total RNA extraction by TRIZOL® Reagent was according to that given by Life Technology:
cDNA Amplification by PCR
8. Electrophoreses 5 μl of each PCR reaction alongside 0.1 μg of 1-kb DNA ladder on a 1.2% agarose/EtBr gel in 1×TBE buffer.

[1] = tested on: Saos2 cells (no p53 copy); experiment: Cell proliferation status after ligand transfection, Saos-2; conditions: Saos-2, without puromycin selection
Description: as §1, §2, §3

U-2 OS (WTp53) = experiment: Cell proliferation status after ligand transfection, U-2 OS; conditions: U2-OS, without puromycin selection
Description: as §1, §2, §3

[2] = ligand transfected SW480.7 compared with empty pCEP4 transfected SW480.7 cells

In the case of “M G W C T (MGWCT; Peptide sequence translated from DNA extracted from library-transfected cells.) [ligand]”, the “Cell growth status after transfection of the ligand” value (shortened to “Cell growth status”) (SW480.7 cells) is reported as “could no longer attach to the wall and died”, the “Restoration of wild type p53 function (RT-PCR analysis of mRNA)” value (R273H/P309S p53 mutant; ligand transfected SW480.7 cells) is reported as “can reestablish wild type p53 function” and the “mRNA level of 14-3-3 gene” value (R273H/P309S p53 mutant; [2]) is reported as “Higher”. The “mRNA level of CD95 gene” value (R273H/P309S p53 mutant; [2]) was “Higher”, the “mRNA level of p21 (WAF1/Cip1) gene” value (R273H/P309S p53 mutant; [2]) was “Higher” and the “Cell growth status” value [1] was “growing well”. For the same substance, the “Cell growth status” value (U-2 OS (WTp53)) was “growing well”.
